Reference: patent US11447502B2, “Antibacterial agents: dual-targeted RNA polymerase inhibitors” (priority 2018, dated 2022)
Values after ≈ are worked out from the molar mass of the structure shown.

Experiments:
Assay in all cases: microbe, parasite or virus in culture
Type in all cases: cell-based
[1] = system: rifampin-resistant M. tuberculosis 20626 (rpoB-H′526′D); details: Mycobacterium tuberculosis; read-out: antibacterial activity rifampin-resistant M. tuberculosis 20626 (rpoB-H′526′D) MIC
[2] = system: rifampin-resistant M. tuberculosis 4457 (rpoB-H′526′Y); details: Mycobacterium tuberculosis; read-out: antibacterial activity rifampin-resistant M. tuberculosis 4457 (rpoB-H′526′Y) MIC
[3] = system: rifampin-resistant M. tuberculosis 10545 (rpoB-S′531′L); details: Mycobacterium tuberculosis; read-out: antibacterial activity rifampin-resistant M. tuberculosis 10545 (rpoB-S′531′L) MIC

| Structure (SMILES) | MIC [1] [µg/mL] | MIC [2] [µg/mL] | MIC [3] [µg/mL] |
| --- | --- | --- | --- |
| CO[C@H]1/C=C/O[C@@]2(C)Oc3c(C)c(O)c4c(O)c(c(/C=N/N5CCN(CCN6CCN(c7ccc(F)cc7NC(=O)C(Cc7ccccc7)NC(=O)c7ccccc7F)CC6)CC5)c(O)c4c3C2=O)NC(=O)/C(C)=C\C=C\[C@H](C)[C@H](O)[C@@H](C)[C@@H](O)[C@@H](C)[C@H](OC(C)=O)[C@@H]1C (some centres unmarked) [IX-403, Rifamycin SV—(CHN)—IX-402 Conjugate] | 25 (≈ 19.2 µM) | 12.5 (≈ 9.62 µM) | 12.5 (≈ 9.62 µM) |
| [2H]C([2H])(c1ccccc1)C(NC(=O)c1ccccc1F)C(=O)Nc1cc(F)ccc1N1CCN(/N=C/C2=C3NC(=O)/C(C)=C\C=C\[C@H](C)[C@H](O)[C@@H](C)[C@@H](O)[C@@H](C)[C@H](OC(C)=O)[C@H](C)[C@@H](OC)/C=C/O[C@@]4(C)Oc5c(C)c(O)c(c(c5C4=O)C2=O)C3=O)CC1 (some centres unmarked) [IX-476a, Rifamycin S—(CHN)—IX-370a Conjugate] | – | 3.13 (≈ 2.64 µM) | 6.25 (≈ 5.26 µM) |
